Measured values: patent publication EP2992880A1, “Use of heme oxygenase 1 inducers and cannabinoid 2 receptor or delta-opioid receptor agonists in inflammatory pain” (Fundació Institut de Recerca de l'Hospital de la Santa Creu …, priority 2014, dated 2016)
Like-named read-outs stand apart in the source and are kept apart here.

How the values were obtained:
HO-1 = test: Western blot of HO-1 protein in dorsal root ganglia of CFA-injected mice; format: in vivo; conditions: CoPP treatment of CFA-injected mice; P < 0.001 (Fig. 6)
Procedure: (§1) Animals were sacrificed at 0 days (naive) and after CFA-injection by cervical dislocation. Tissues from the ipsilateral section of the dorsal root ganglia (L3 to L5) were removed immediately after killing, frozen in liquid nitrogen, and stored at -80°C until assay. Samples from five animals were pooled into one experimental sample to obtain enough protein levels for performing Western blot analysis. The HO-1, DOR and CB2R protein levels were analyzed by Western blot. […]
(§2) The proteins were electrophoretically transferred onto PVDF membrane for 120 min, blocked with PBS + 5% nonfat dry milk, and subsequently incubated overnight at 4°C with polyclonal rabbit anti-HO-1 (1:300, Stressgen, Ann Arbor, MI), anti-DOR (1:2500, Chemicon-Millipore) or anti-CB2R (1:500, Abcam, Cambridge, United Kingdom). The proteins were detected by a horseradish peroxidase-conjugated anti-rabbit secondary antibody (GE Healthcare, Little Chalfont, Buckinghamshire, United Kingdom) and visualized with chemiluminescence reagents (ECL kit; GE Healthcare) and by exposure onto hyperfilm (GE Healthcare). The intensity of blots was quantified by densitometry. […]
(§3) Finally, in another set of experiments we evaluated the effects of CoPP on the expression of HO-1, DOR and CB2R in the ipsilateral site of the dorsal root ganglia from CFA-injected mice, by using Western blot assay. […]

[1] = neuropathic pain; cited from earlier work
CB2R = test: Western blot of CB2R protein in dorsal root ganglia of CFA-injected mice; format: in vivo; conditions: CoPP treatment of CFA-injected mice (Fig. 8)
Procedure: as §1, §2, §3

[2] = inflammatory pain; cited from earlier work
DOR = test: Western blot of DOR protein in dorsal root ganglia of CFA-injected mice; format: in vivo; conditions: CoPP treatment of CFA-injected mice; P < 0.001 (Fig. 7)
Procedure: as §1, §2, §3

For “cobalt (III) protoporphyrin IX chloride [CoPP]”, which “dorsal root ganglia expression of HO-1” value (HO-1) is on record?
The value was “significantly increased”.

What about the “effect of CoPP on the antinociceptive effect of DPDPE” value [1] of the same substance?
The value was “decreased”.

And the “effect of CoPP on the antinociceptive effect of JWH-015” value [1]?
Its value is “decreased”.

And the “effect of CoPP on the antinociceptive effect of morphine” value [1]?
Its value is “increases”.

And the “peripheral expression of CB2R in the dorsal root ganglia from CFA-injected mice” value (CB2R)?
The value was “remains unaltered”.

And the “effect of CoPP on the antinociceptive effect of morphine” value [2]?
Its value is “increases”.

And the “decreased protein levels of DOR in the dorsal root ganglia from CFA-injected mice” value (DOR)?
The value was “avoided”.
